Reference: patent US8765696B2, “Steroid compound” (Mikasa Seiyaku Co., Ltd., priority 2009, dated 2014)

Key:
[1] = test system: croton oil-induced granuloma; experiment: Test for croton oil-induced granuloma (air pouch exudate and thymus weight); type: in vivo, rat; settings: male Wistar rats, 7 days, vs control group
Excerpt: Using the croton oil granuloma test, which is a test method with which the local anti-inflammatory action and the systemic side effect can be evaluated at the same time, the pharmacological effect and the systemic side effect of the compounds of the present invention were studied.
Five individuals/group of male Wistar rats having body weights of 180 to 225 g were used, and hair on the back of these rats was shaved with a clipper under ether anesthesia, followed by preparing an air pouch by subcutaneous injection of 20 mL of air at the back. On the next day, 1 mL of cottonseed oil containing 1% croton oil was administered to the pouch. Each test drug was suspended in the croton oil-containing cottonseed oil before administration. Seven days later, blood was collected from abdominal aorta under ether anesthesia, and exudate in the pouch was collected and its fluid amount was measured. Further, the thymus was removed, and its weight was measured. The weight of the exudate and the weight of the thymus are shown in Table 2 as the suppression rate and the atrophy rate (%) with respect to those of the control group.

[2] = test system: croton oil-induced ear edema; experiment: Test for croton oil-induced ear edema; type: in vivo; settings: rat right auricle; for Edema suppression rate of 6 hours after administration of inflammatory agent (%): 6 hours after croton oil; for Edema suppression rate of 24 hours after administration of inflammatory agent (%): 24 hours after croton oil
Method: Croton oil ear edema test, which is a representative model for dermatitis, was used to study the pharmacological effect of compounds of the present invention.
Five individuals/group of rats of 5 weeks old (body weight, 128 g to 169 g) were used. One day before the test, the thickness of the right ear was measured under ether anesthesia using a dial thickness gauge, to obtain the Pre value. On the day of the test, 20 mg each of the ointments to be tested, which had been prepared to have various concentrations in white vaseline, was applied to the right auricle (both sides) of each rat, and a collar was then placed around the neck of the rat to prevent contacting/scratching and removal of the drug. Two hours later, the ointment was wiped off under ether anesthesia using absorbent cotton, and 0.1 mL of 5% croton oil (croton oil:ether:pyridine:distilled water=1:14:4:1) solution was applied dropwise to the both sides of the auricle while drying the solution with a drier (air blow), to induce ear edema. Six and 24 hours after the induction of the edema, the thickness of the right auricle was measured under ether anesthesia, and the edema rate and the edema suppression rate were calculated according to the equations below, which suppression rate is shown in Table 1.

SMILES | Rate of exudates suppression (pharmacological effects) ([1]; dose 0.001 mg/rat into pouch) [%] | Rate of thymus atrophy (systemic side effects) ([1]; dose 0.001 mg/rat into pouch) [%] | Rate of exudates suppression (pharmacological effects) ([1]; dose 0.01 mg/rat into pouch) [%] | Rate of thymus atrophy (systemic side effects) ([1]; dose 0.01 mg/rat into pouch) [%] | Rate of exudates suppression (pharmacological effects) ([1]; dose 0.1 mg/rat into pouch) [%] | Rate of thymus atrophy (systemic side effects) ([1]; dose 0.1 mg/rat into pouch) [%] | Rate of exudates suppression (pharmacological effects) ([1]; dose 1 mg/rat into pouch) [%] | Rate of thymus atrophy (systemic side effects) ([1]; dose 1 mg/rat into pouch) [%] | Edema suppression rate of 6 hours after administration of inflammatory agent (%) ([2]; ointment concentration 0.001%) | Edema suppression rate of 24 hours after administration of inflammatory agent (%) ([2]; ointment concentration 0.001%) | Edema suppression rate of 6 hours after administration of inflammatory agent (%) ([2]; ointment concentration 0.01%) | Edema suppression rate of 24 hours after administration of inflammatory agent (%) ([2]; ointment concentration 0.01%) | Edema suppression rate of 6 hours after administration of inflammatory agent (%) ([2]; ointment concentration 0.1%) | Edema suppression rate of 24 hours after administration of inflammatory agent (%) ([2]; ointment concentration 0.1%)
CCCC1O[C@@H]2C[C@H]3[C@@H]4CCC5=CC(=O)C=C[C@]5(C)[C@H]4[C@@H](O)C[C@]3(C)[C@]2(C(=O)CO)O1 (stereo partly drawn) [Budesonide(R), reference compound] | 7.6 | 15.6 | 44.9 | 25.8 | 88.4 | 74.5 | 93.0 | 90.2 | – | – | – | – | – | –
CCCC1O[C@@H]2C[C@H]3[C@@H]4CCC5=CC(=O)C=C[C@]5(C)[C@H]4[C@@H](O)C[C@]3(C)[C@]2(C(=O)CO)O1 (stereo partly drawn) [Budesonide, budesonide, reference compound] | 10.8 | 7.3 | 66.9 | 17.7 | 91.6 | 74.5 | 94.3 | 87.5 | 11.8 | 7.6 | 32.3 | 33.5 | 48.1 | 45.1
CC(C)C(=O)OCC(=O)[C@@]12O[C@H](C3CCCCC3)O[C@@H]1C[C@H]1[C@@H]3CCC4=CC(=O)C=C[C@]4(C)[C@H]3[C@@H](O)C[C@@]12C [Ciclesonide, ciclesonide, reference compound] | 62.8 | 6.0 | 93.5 | 13.0 | 93.0 | 23.6 | 92.6 | 84.4 | 9.1 | 9.4 | 30.3 | 24.5 | 49.4 | 43.5
CC12C=CC(=O)C=C1CCC1C2C(O)CC2(C)C1CC1OC(C3CCCCC3)OC12C(=O)COC1OC(CO)C(O)C(O)C1O (stereo not drawn) [Compound 2] | – | – | – | – | – | – | – | – | 13.5 | 12.5 | 36.8 | 38.2 | 50.2 | 49.5
CCC(=O)OCC1OC(OCC(=O)C23OC(C4CCCCC4)OC2CC2C4CCC5=CC(=O)C=CC5(C)C4C(O)CC23C)C(OC(=O)CC)C(OC(=O)CC)C1OC(=O)CC (stereo not drawn) [Compound 4] | 17.9 | 0.0 | 44.5 | 0.0 | 87.0 | 0.0 | 94.5 | 0.0 | 30.8 | 33.8 | 46.3 | 70.2 | 54.4 | 71.7
CCCC(=O)OCC1OC(OCC(=O)C23OC(C4CCCCC4)OC2CC2C4CCC5=CC(=O)C=CC5(C)C4C(O)CC23C)C(OC(=O)CCC)C(OC(=O)CCC)C1OC(=O)CCC (stereo not drawn) [Compound 5] | 17.8 | 0.0 | 14.3 | 0.0 | 40.4 | 0.0 | 91.4 | 0.0 | 21.7 | 11.1 | 61.5 | 48.1 | 57.6 | 52.3
CC(C)C(=O)OCC1OC(OCC(=O)C23OC(C4CCCCC4)OC2CC2C4CCC5=CC(=O)C=CC5(C)C4C(O)CC23C)C(OC(=O)C(C)C)C(OC(=O)C(C)C)C1OC(=O)C(C)C (stereo not drawn) [Compound 6] | 0.0 | 0.0 | 12.0 | 0.0 | 31.2 | 0.0 | 71.9 | 0.0 | 27.5 | 30.5 | 53.1 | 45.8 | 53.1 | 55.1
CC12C=CC(=O)C=C1CCC1C2C(O)CC2(C)C1CC1OC(C3CCCCC3)OC12C(=O)COC1OC(COC=O)C(OC=O)C(OC=O)C1OC=O (stereo not drawn) [Compound 7] | 8.7 | 2.9 | 52.4 | 0.0 | 59.4 | 5.8 | 76.8 | 19.5 | 42.3 | 52.0 | 49.7 | 53.4 | 48.5 | 53.5
CC12C=CC(=O)C=C1CCC1C2C(O)CC2(C)C1CC1OC(C3CCCCC3)OC12C(=O)COC1OC(COC(=O)c2ccco2)C(OC(=O)c2ccco2)C(OC(=O)c2ccco2)C1OC(=O)c1ccco1 (stereo not drawn) [Compound 8] | 19.1 | 0.0 | 42.1 | 0.0 | 78.0 | 0.0 | 95.0 | 0.5 | 24.2 | 25.9 | 36.0 | 40.1 | 33.4 | 49.6
C[C@]12C=CC(=O)C=C1CC[C@@H]1[C@@H]2[C@@H](O)C[C@@]2(C)[C@H]1C[C@H]1O[C@@H](C3CCCCC3)O[C@]12C(=O)CO [desCIC, des-ciclesonide, reference compound] | 62.0 | 0.0 | 74.1 | 11.7 | 92.7 | 22.4 | 94.1 | 86.4 | – | – | – | – | – | –
